Measured values from PMC8909834, “An Orally Bioavailable and Highly Efficacious Inhibitor of CDK9/FLT3 for the Treatment of Acute Myeloid Leukemia” (Cancers, 2022).

Key:
TAOK1 = biological target: T1, TAOK1 (Homo sapiens, UniProt Q7L7X3); assay: Kinase Hotspot radiolabel assay; type: biochemical; conditions: read-out: % Residual Activity
T1 construct: purchased Reaction Biology Corporation (Kinase HotSpot)

[1] = Aqueous solubility by turbidimetric method; type: physicochemical; conditions: aqueous medium (not further specified), kinetic from dmso stock
[2] = Partition coefficient by shake flask assay; type: physicochemical; conditions: octanol/aqueous phase, pH 7.4, read-out: Partition Coefficient LogD7.4 (octanol)
Caco-2 permeability = type: in vitro ADME; conditions: human
Caco-2 monolayer = assay: Caco-2 permeability; type: in vitro ADME; conditions: Papp B-A/Papp A-B
MV4-11 tumors = assay: In vivo target engagement (western blot of tumor lysates); set-up: species or system mice; conditions: 75 and 125 mg/kg orally for 5 days, 4 h post final dose
Experimental: Western blotting. Western blotting was performed as described previously. Briefly, cells were lysed after incubation with different concentrations of compounds or control (0.1% DMSO) at the indicated times, samples were denatured at 95 °C for 5 min, and proteins having different molecular weights within each sample were separated by electrophoresis (Bio-Rad, Hercules, CA, USA) on polyacrylamide gels (4–20%, Bio-Rad). Resolved proteins were electrophoretically transferred onto a PVDF membrane and blocked by incubating with 10% w/v non-fat powdered milk dissolved in 1 × Tris-buffered saline-tween 20 (TBST) for 1 h at room temperature prior to incubating overnight with primary antibodies at 4 °C with slight shaking. Chemiluminescence was detected with a ChemiDoc^TM gel imaging system after the membranes have been exposed to ECL substrates (GE Healthcare, PA, USA), and the Image Lab software (Bio-Rad) was used for image capture. […] Bands were quantified using ImageJ software (US National Institutes of Health, Bethesda, MD, USA). […]

T1 sequence (Q7L7X3 whole entry): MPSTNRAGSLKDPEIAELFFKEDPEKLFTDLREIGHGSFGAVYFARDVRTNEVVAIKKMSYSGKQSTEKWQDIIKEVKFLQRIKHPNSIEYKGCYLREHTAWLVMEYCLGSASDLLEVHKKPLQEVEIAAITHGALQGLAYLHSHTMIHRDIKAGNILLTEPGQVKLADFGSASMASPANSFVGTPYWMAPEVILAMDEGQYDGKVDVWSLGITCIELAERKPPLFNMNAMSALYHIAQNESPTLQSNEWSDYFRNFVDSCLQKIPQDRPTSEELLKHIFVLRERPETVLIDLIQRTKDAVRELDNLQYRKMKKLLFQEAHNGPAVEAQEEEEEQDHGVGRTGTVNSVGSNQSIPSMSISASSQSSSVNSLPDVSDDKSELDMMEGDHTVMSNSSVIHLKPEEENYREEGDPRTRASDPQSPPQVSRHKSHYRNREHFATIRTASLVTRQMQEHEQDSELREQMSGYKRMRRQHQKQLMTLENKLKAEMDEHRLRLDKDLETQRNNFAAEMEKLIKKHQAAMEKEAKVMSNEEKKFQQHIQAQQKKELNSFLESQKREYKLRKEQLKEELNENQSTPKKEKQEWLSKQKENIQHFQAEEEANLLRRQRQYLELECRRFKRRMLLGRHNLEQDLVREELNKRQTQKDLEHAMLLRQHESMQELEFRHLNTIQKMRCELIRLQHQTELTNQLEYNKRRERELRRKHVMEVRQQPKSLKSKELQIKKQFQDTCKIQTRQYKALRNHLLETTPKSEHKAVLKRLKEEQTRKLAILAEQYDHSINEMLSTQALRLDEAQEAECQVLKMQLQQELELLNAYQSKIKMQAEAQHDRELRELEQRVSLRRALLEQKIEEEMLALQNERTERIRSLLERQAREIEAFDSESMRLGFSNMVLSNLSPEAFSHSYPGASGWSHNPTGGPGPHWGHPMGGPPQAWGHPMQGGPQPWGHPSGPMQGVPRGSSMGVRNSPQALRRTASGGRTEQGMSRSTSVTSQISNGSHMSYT

Cc1cnc(N[C@H]2CC[C@H](N)CC2)nc1-c1cnc2ccc(-c3ccccc3)cn12 [CDDD11-8]
remaining activity at 1 µM (TAOK1): 45.5% | solubility [1]: > 100 µM | logD [2]: 1.87 | efflux ratio (Caco-2 permeability; Caco-2, Papp B-A/Papp A-B): 4.9 | Papp A→B (Caco-2 permeability; Caco-2, A-B): 6.06 ± 0.49 ×10⁻⁶ cm/s | Papp B→A (Caco-2 permeability; Caco-2, B-A): 29.5 ± 8.47 ×10⁻⁶ cm/s | Caco-2 Permeability Efflux ratio (Caco-2 monolayer): 4.87 | level of MCL1 in tumors (MV4-11 tumors): greatly reduced | phosphorylation of FLT3 at Tyr591 and STAT5 at Tyr 694 in tumors (MV4-11 tumors): reduced | phosphorylation of RNAPII at Ser2 and Ser5 in tumors (MV4-11 tumors): potently inhibited
